IC50 data for 6 compounds are collected here from article PMC5421785, “Citrullination only infrequently impacts peptide binding to HLA class II MHC” (PLoS ONE, 2017).

The target of one assay is T1, HLA-DRB1*01:01 (Homo sapiens, UniProt P01903+P01911, A100R/D57E/F55L/F60I/F76Y/I96L/L162R/M171V/P40L/Q125E/R42F/V115G/Y59C).
T1 construct: EBV transformed homozygous cell lines were used as sources of MHC molecules; endogenous in cells; host or cells: EBV transformed homozygous cell lines
Put plainly: HLA class II peptide binding, inhibition of radiolabeled peptide binding to purified MHC.

Another assay deals with T2, HLA-DRB1*04:01 (Homo sapiens, UniProt P01903+P01911, A100K/A169T/F76Y/I96L/K127E/L162R/M171V/N62H/P40V/Q125Y/R42H/S133A/S149N/S66Y/V115G/V209L/W38E).
T2 construct: EBV transformed homozygous cell lines were used as sources of MHC molecules; endogenous in cells; host or cells: EBV transformed homozygous cell lines
The description is as above.

[1] abbreviates: citrullinated 15-mer (X), purified MHC, inhibition of radiolabeled peptide binding, dash = IC50 >40,000 nM, read-out: DRB1*01:01 binding capacity, Cit peptide (IC50 nM).
Where [2] appears, read: citrullinated 15-mer (X), purified MHC, inhibition of radiolabeled peptide binding, dash = IC50 >40,000 nM, read-out: DRB1*04:01 binding capacity, Cit peptide (IC50 nM).
The mark [3] stands for this setting: citrullinated 15-mer peptide (X = citrulline), purified HLA-DRB1*01:01, read-out: DRB1*01:01 binding capacity, Cit peptide (IC50 nM).
The mark [4] stands for this setting: citrullinated 15-mer peptide (X = citrulline), purified HLA-DRB1*04:01, read-out: DRB1*04:01 binding capacity, Cit peptide (IC50 nM).

Where two headings read alike, the source gives them in different places. Square brackets hold non-standard residues; d marks the D form. Peptide text beside a SMILES is read from it. Cit = NC(=O)NCCC[C@H](N)C(=O)O Where only a bound is given, the exact number is not on record here.

For `CC(C)C[C@H](NC(=O)[C@H](CC(N)=O)NC(=O)[C@H](CC(=O)O)NC(=O)[C@H](CCCNC(=N)N)NC(=O)[C@H](CCC(=O)O)NC(=O)[C@@H](NC(=O)[C@H](CCC(=O)O)NC(=O)[C@@H](NC(=O)[C@H](CCCNC(N)=O)NC(=O)[C@H](C)NC(=O)[C@H](CCCCN)NC(=O)[C@H](CC(=O)O)NC(=O)[C@@H](N)CC(N)=O)C(C)C)C(C)C)C(=O)N[C@@H](C)C(=O)N[C@@H](CCC(=O)O)C(=O)O` [NDKAXVEVERDNLAE] (H-NDKA[Cit]VEVERDNLAE-OH), the half-maximal inhibitory concentration (IC50) was found to be 1070 nM on HLA-DRB1*01:01 (setting [1]) and 905 nM at HLA-DRB1*04:01 (setting [2]).
As for `CC[C@H](C)[C@H](NC(=O)[C@H](Cc1ccc(O)cc1)NC(=O)[C@H](CC(N)=O)NC(=O)[C@H](C)NC(=O)[C@H](Cc1ccccc1)NC(=O)[C@H](CCCNC(=N)N)NC(=O)[C@H](CC(=O)O)NC(=O)[C@@H](N)CC(N)=O)C(=O)N[C@@H](CC(=O)O)C(=O)N[C@@H](CCCCN)C(=O)N[C@H](C(=O)N[C@@H](CCCNC(N)=O)C(=O)N[C@@H](Cc1ccccc1)C(=O)N[C@@H](CC(C)C)C(=O)N[C@@H](CCC(=O)O)C(=O)O)C(C)C` [NDRFANYIDKVXFLE] (H-NDRFANYIDKV[Cit]FLE-OH), the 50% inhibitory concentration (IC50) on HLA-DRB1*01:01 (setting [1]) was determined as 229 nM; on HLA-DRB1*04:01 (setting [2]), 5660 nM.
For `CC[C@H](C)[C@H](NC(=O)[C@H](Cc1ccc(O)cc1)NC(=O)[C@H](CC(N)=O)NC(=O)[C@H](C)NC(=O)[C@H](Cc1ccccc1)NC(=O)[C@H](CCCNC(N)=O)NC(=O)[C@H](CC(=O)O)NC(=O)[C@@H](N)CC(N)=O)C(=O)N[C@@H](CC(=O)O)C(=O)N[C@@H](CCCCN)C(=O)N[C@H](C(=O)N[C@@H](CCCNC(=N)N)C(=O)N[C@@H](Cc1ccccc1)C(=O)N[C@@H](CC(C)C)C(=O)N[C@@H](CCC(=O)O)C(=O)O)C(C)C` [NDXFANYIDKVRFLE] (H-ND[Cit]FANYIDKVRFLE-OH) the same measures were 816 nM and 10900 nM.
Take `CSCC[C@H](NC(=O)[C@H](CCC(=O)O)NC(=O)[C@H](CCC(=O)O)NC(=O)[C@H](CCCCN)NC(=O)[C@H](CCSC)NC(=O)[C@@H](N)CC(N)=O)C(=O)N[C@@H](C)C(=O)N[C@@H](CCCNC(=N)N)C(=O)N[C@@H](Cc1c[nH]cn1)C(=O)N[C@@H](CC(C)C)C(=O)N[C@@H](CCCNC(N)=O)C(=O)N[C@@H](CCC(=O)O)C(=O)N[C@@H](Cc1ccc(O)cc1)C(=O)N[C@@H](CCC(N)=O)C(=O)N[C@@H](CC(=O)O)C(=O)O` [NMKEEMARHLXEYQD]: the IC50 on HLA-DRB1*01:01 (setting [3]) is 5060 nM; on HLA-DRB1*04:01 (setting [4]), over 40000 nM.
Taken in the same sequence, the figures for `CSCC[C@H](NC(=O)[C@H](CCC(=O)O)NC(=O)[C@H](CCC(=O)O)NC(=O)[C@H](CCCCN)NC(=O)[C@H](CCSC)NC(=O)[C@@H](N)CC(N)=O)C(=O)N[C@@H](C)C(=O)N[C@@H](CCCNC(N)=O)C(=O)N[C@@H](Cc1c[nH]cn1)C(=O)N[C@@H](CC(C)C)C(=O)N[C@@H](CCCNC(=N)N)C(=O)N[C@@H](CCC(=O)O)C(=O)N[C@@H](Cc1ccc(O)cc1)C(=O)N[C@@H](CCC(N)=O)C(=O)N[C@@H](CC(=O)O)C(=O)O` [NMKEEMAXHLREYQD] were 5190 nM and over 40000 nM.
Regarding `CC(C)C[C@H](NC(=O)[C@H](C)NC(=O)[C@@H](NC(=O)[C@H](Cc1ccc(O)cc1)NC(=O)[C@@H](NC(=O)[C@H](Cc1ccccc1)NC(=O)[C@H](CCCNC(N)=O)NC(=O)[C@H](CO)NC(=O)[C@@H](N)CC(N)=O)[C@@H](C)O)[C@@H](C)O)C(=O)N[C@@H](CCCCN)C(=O)N[C@@H](CC(=O)O)C(=O)NCC(=O)N[C@@H](CS)C(=O)N[C@H](C(=O)N[C@@H](CCCCN)C(=O)O)[C@@H](C)O` [NSXFTYTALKDGCTK] (H-NS[Cit]FTYTALKDGCTK-OH), the 50% inhibitory concentration (IC50) on HLA-DRB1*01:01 (citrullinated peptide as listed (X at Cit position), read-out: DRB1*01:01 binding capacity Cit peptide (IC50 nM)) amounted to 44 nM; on HLA-DRB1*01:01 (value of the wild-type (non-citrullinated) counterpart of the listed peptide, read-out: DRB1*01:01 binding capacity WT peptide (IC50 nM)), 15 nM; on HLA-DRB1*04:01 (citrullinated peptide as listed (X at Cit position), read-out: DRB1*04:01 binding capacity Cit peptide (IC50 nM)) it was 12400 nM; at HLA-DRB1*04:01 (value of the wild-type (non-citrullinated) counterpart of the listed peptide, read-out: DRB1*04:01 binding capacity WT peptide (IC50 nM)), 4170 nM.
